The values that follow come from US20060229324A1, “Quinazolin-4-one derivatives” (priority 2002, published 2006).

For test [1], the target named is human hematopoietic prostaglandin D2 synthase (Homo sapiens, UniProt O60760). The test is described as follows: Inhibitory activity against spleen-type (hematopoietic) prostaglandin D2 synthase, [14C]PGH2 to PGD2, TLC. The class given is biochemical. To be noted: for inhibition at 10 µM / inhibition at 30 µM: read-out: Inhibitory Ratio of Prostaglandin D2 (PGD2) Synthase (%). Here is the method:
A buffer solution of 100 mM Tris (hydroxymethyl)aminomethane/HCl buffer (pH8.0) containing glutathione (0.1 mM) and human hematopoietic prostaglandin D2 synthase (adequate quantity) was preincubated at 25° C. for 5 minutes in the presence or absence of a test compound, and then 14C labeled prostaglandin H2 ([14C]PGH2) (10 μM) was added, and the buffer solution was further incubated at 25° C. for one minute. A mixture of ether, methanol, and citric acid was added to the reaction mixture, and the ether layer was developed on silica gel thin-layer chromatography (TLC) (eluent=ether: methanol: acetic acid=90:2:1), and the PGD2 produced was measured by exposure to an imaging plate. The enzyme inhibitory rates of test compounds were calculated assuming the amount of production of PGD2 without the test compound being 100%.

In test [2] the test system is RBL-2H3, a rat basophilic leukemia cell to express hematopoietic prostaglandin D synthase. The test is described as follows: Prostaglandin D2 production inhibition test using cells (A23187-induced, EIA). The following applies: RBL-2H3 cells, A23187 2.5 μM; for inhibition at 10 µM: Rattus norvegicus, RBL-2H3, Drug Concentration 10 μM, read-out: Inhibitory Ratio of Prostaglandin D2 (PGD2) Production (%); for Inhibitory Ratio of Prostaglandin D2 (PGD2) Production (%): Drug Concentration 10 μM. The test is classed as cell-based. Here is the method:
RBL-2H3, a rat basophilic leukemia cell to express hematopoietic prostaglandin D synthase, was inoculated in a 24 well plate and incubated overnight. After replacement with a medium in the presence or absence of a test compound, preincubation was carried out at 37° C. for one hour. After washing of the cells with PBS(-), the medium was replaced with a Hepes buffer solution (pH7.4) in the presence or absence of the test compound, and incubation was continued at 37° C. for 15 minutes. Then, calcium ionophore (A23187) at a final concentration of 2.5 μM was added, and incubation was carried out at 37° C. for 15 minutes to induce the production of PGD2. The supernatant of the cells was collected, and the amount of PGD2 flowed out in the supernatant was measured by EIA kit by Cayman. The inhibitory ratio of the production of PGD2 by the test compound was calculated assuming the amount of PGD2 produced by A23187 in the absence of the test compound as being 100%.

human hematopoietic prostaglandin D2 synthase, sequence (O60760 whole entry): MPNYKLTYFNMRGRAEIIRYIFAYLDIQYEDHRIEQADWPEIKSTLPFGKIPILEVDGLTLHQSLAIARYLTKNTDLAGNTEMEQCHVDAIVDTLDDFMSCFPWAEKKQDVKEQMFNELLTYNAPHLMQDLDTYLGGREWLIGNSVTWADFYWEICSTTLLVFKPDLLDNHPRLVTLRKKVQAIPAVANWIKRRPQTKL

Take `Cc1nn(-c2ccccc2)c(O)c1/C=N/n1c(C)nc2ccccc2c1=O` [Compound 1, 3-[(5-hydroxy-3-methyl-1-phenylpyrazol-4-yl)methylidene]-amino-2-methyl-3,4-dihydroquinazolin-4-one]: the inhibition at 10 µM in test [1] (Drug Concentration 10 μM) was determined as 50%; in test [2], 26%. Also, in test [1] (Drug Concentration 30 μM), the inhibition at 30 µM turned out to be 76%.

Regarding `CCOc1c(/C=N/n2c(C)nc3ccccc3c2=O)c(C)nn1-c1ccccc1` [Compound 3, 3-[(5-ethoxy-3-methyl-1-phenylpyrazol-4-yl)methylidene]amino-2-methyl-3,4-dihydroquinazolin-4-one], the inhibition at 10 µM in test [1] (Drug Concentration 10 μM) is 13%; in test [2], 21%.

Regarding `Cc1nc2ccccc2c(=O)n1/N=C/c1c(C(F)(F)F)nn(-c2ccccc2)c1O` [Compound 7, 3-[(5-hydroxy-1-phenyl-3-(trifluoromethyl)pyrazol-4-yl)-methylidene]amino-2-methyl-3,4-dihydroquinazolin-4-one], the inhibition at 10 µM in test [1] (Drug Concentration 10 μM) was 96%; in test [2], 50%. For the same molecule, in test [1] (Drug Concentration 30 μM), the inhibition at 30 µM was determined as 105%.

Turning to `Cc1nn(-c2ccc(Cl)cc2)c(O)c1C=Nn1c(C)nc2ccccc2c1=O` [Compound 17, 3-{[1-(4-chlorophenyl)-3-methyl-5-hydroxypyrazol-4-yl]methylidene}amino-2-methyl-3,4-dihydroquinazolin-4-one], the inhibition at 10 µM is 29% in test [1] (Drug Concentration 10 μM) and 21% in test [2].

For the molecule `Cc1nn(-c2ccc([N+](=O)[O-])cc2)c(O)c1C=Nn1c(C)nc2ccccc2c1=O` [Compound 20, 3-{[3-methyl-1-(4-nitrophenyl)-5-hydroxypyrazol-4-yl]-methylidene}amino-2-methyl-3,4-dihydroquinazolin-4-one], the values for the inhibition at 10 µM in test [1] (Drug Concentration 10 μM) and in test [2] were 37% and 15%, respectively. Besides, the inhibition at 30 µM in test [1] (Drug Concentration 30 μM) amounted to 83%.

For the molecule `Cc1nn(-c2ccccc2)c(O)c1/C=N/n1c(-c2ccccc2)nc2ccccc2c1=O` [Compound 24, 3-[(5-hydroxy-3-methyl-1-phenylpyrazol-4-yl)methylidene]-amino-2-phenyl-3,4-dihydroquinazolin-4-one], the inhibition at 10 µM in test [2] was determined as 59%.

For the molecule `Cc1nn(-c2ccccc2)c(O)c1/C=N/n1c(C(C)(C)C)nc2ccccc2c1=O` [Compound 25, 2-tert-butyl-3-[(5-hydroxy-3-methyl-1-phenylpyrazol-4-yl)methylidene]amino-3,4-dihydroquinazolin-4-one], in test [2], the inhibition at 10 µM was determined as 47%.

With `COc1ccc(-c2nc3ccccc3c(=O)n2N=Cc2c(C)nn(-c3ccccc3)c2O)cc1` [Compound 30, 3-[(5-hydroxy-3-methyl-1-phenylpyrazol-4-yl)methylidene]-amino-2-(4-methoxyphenyl)-3,4-dihydroquinazolin-4-one], the “Inhibitory Ratio of Prostaglandin D2 (PGD2) Synthase (%)” value (“Inhibitory Ratio … (PGD2) Synthase (%)” for short) in test [1] (Drug Concentration 10 μM) is 51%; in test [1] (Drug Concentration 30 μM), 71%. Also, the “Inhibitory Ratio of Prostaglandin D2 (PGD2) Production (%)” value (“Inhibitory Ratio … (PGD2) Production (%)” below) in test [2] is on record as 28%.

In the case of `COc1cccc(-c2nc3ccccc3c(=O)n2N=Cc2c(C)nn(-c3ccccc3)c2O)c1` [Compound 31, 3-[(5-hydroxy-3-methyl-1-phenylpyrazol-4-yl)methylidene]-amino-2-(3-methoxyphenyl)-3,4-dihydroquinazolin-4-one], the “Inhibitory Ratio … (PGD2) Synthase (%)” value in test [1] (Drug Concentration 10 μM) was 23%; in test [1] (Drug Concentration 30 μM), 26%.

On to `COc1ccccc1-c1nc2ccccc2c(=O)n1N=Cc1c(C)nn(-c2ccccc2)c1O` [Compound 32, 3-[(5-hydroxy-3-methyl-1-phenylpyrazol-4-yl)methylidene]-amino-2-(2-methoxyphenyl)-3,4-dihydroquinazolin-4-one], for which the “Inhibitory Ratio … (PGD2) Synthase (%)” value in test [1] (Drug Concentration 10 μM) stood at 12%; in test [1] (Drug Concentration 30 μM) it was 15%.

With `Cc1nn(-c2ccccc2)c(O)c1/C=N/n1c(C)nc2cccc(C)c2c1=O` [Compound 33, 2,5-dimethyl-3-[(5-hydroxy-3-methyl-1-phenylpyrazol-4-yl)methylidene]amino-3,4-dihydroquinazolin-4-one], the inhibition at 10 µM in test [1] (Drug Concentration 10 μM) worked out at 27%. Further, in test [1] (Drug Concentration 30 μM), the inhibition at 30 µM is 61%.

As for `Cc1nn(-c2ccccc2)c(O)c1/C=N/n1c(C)nc2c(C)cccc2c1=O` [Compound 34, 2,8-dimethyl-3-[(5-hydroxy-3-methyl-1-phenylpyrazol-4-yl)methylidene]amino-3,4-dihydroquinazolin-4-one], the inhibition at 10 µM in test [1] (Drug Concentration 10 μM) was found to be 71%. Besides, the inhibition at 30 µM in test [1] (Drug Concentration 30 μM) was found to be 84%.

With `Cc1nn(-c2ccccc2)c(O)c1/C=N/n1c(C)nc2ccc(Cl)cc2c1=O` [Compound 35, 6-chloro-3-[(5-hydroxy-3-methyl-1-phenylpyrazol-4-yl)methylidene]amino-2-methyl-3,4-dihydroquinazolin-4-one], the inhibition at 10 µM in test [1] (Drug Concentration 10 μM) is 15%. Also, the inhibition at 30 µM in test [1] (Drug Concentration 30 μM) worked out at 68%.

For `Cc1nn(-c2ccccc2)c(O)c1/C=N/n1c(C)nc2cc(Cl)ccc2c1=O` [Compound 36, 7-chloro-3-[(5-hydroxy-3-methyl-1-phenylpyrazol-4-yl)-methylidene]amino-2-methyl-3,4-dihydroquinazolin-4-one], the inhibition at 10 µM in test [1] (Drug Concentration 10 μM) stood at 39%. Moreover, in test [1] (Drug Concentration 30 μM), the inhibition at 30 µM came to 60%.

Regarding `Cc1nn(-c2ccccc2)c(O)c1/C=N/n1c(C)nc2ccc(Br)cc2c1=O` [Compound 37, 6-bromo-3-[(5-hydroxy-3-methyl-1-phenylpyrazol-4-yl)-methylidene]amino-2-methyl-3,4-dihydroquinazolin-4-one], the inhibition at 10 µM is 15% in test [1] (Drug Concentration 10 μM) and 32% in test [2]. Besides, the inhibition at 30 µM in test [1] (Drug Concentration 30 μM) worked out at 56%.

`COc1cc2nc(C)n(/N=C/c3c(C)nn(-c4ccccc4)c3O)c(=O)c2cc1OC` [Compound 38, 6,7-dimethoxy-3-[(5-hydroxy-3-methyl-1-phenylpyrazol-4-yl)-methylidene]amino-2-methyl-3,4-dihydroquinazolin-4-one]: in test [1] (Drug Concentration 10 μM), the inhibition at 10 µM amounted to 20%. In addition, the inhibition at 30 µM in test [1] (Drug Concentration 30 μM) was found to be 51%.

With `Cc1nn(-c2ccccc2)c(O)c1C=NN1C(=O)c2ccccc2NC1CO` (stereo not drawn) [Compound 39, 3-[(5-hydroxy-3-methyl-1-phenylpyrazol-4-yl)methylidene]-amino-2-hydroxymethyl-1,2,3,4-tetrahydroquinazolin-4-one], the “Inhibitory Ratio … (PGD2) Synthase (%)” value in test [1] (Drug Concentration 10 μM) was found to be 77%; in test [1] (Drug Concentration 30 μM), 46%. Moreover, the “Inhibitory Ratio … (PGD2) Production (%)” value in test [2] came out at 70%.

For the molecule `Cc1nn(-c2ccccc2)c(O)c1C=NN1C(=O)c2ccccc2NC1CO` (stereo not drawn) [Compound 40, 3-[(5-hydroxy-3-methyl-1-phenylpyrazol-4-yl)-methylidene]amino-2-hydroxymethyl-1,2,3,4-tetrahydroquinazolin-4-one], the inhibition at 10 µM in test [2] is 74%.

In the case of `Cc1nn(-c2ccccc2)c(O)c1C=NN1C(=O)c2ccccc2NC1CO` (stereo not drawn) [Compound 41, 3-[(5-hydroxy-3-methyl-1-phenylpyrazol-4-yl)-methylidene]amino-2-hydroxymethyl-1,2,3,4-tetrahydroquinazolin-4-one], the “Inhibitory Ratio … (PGD2) Production (%)” value in test [2] stood at 80%.

In the case of `Cc1nc2ccccc2c(=O)n1N=Cc1c(C23CC4CC(CC(C4)C2)C3)nn(-c2ccccc2)c1O` [Compound 44], the “Inhibitory Ratio … (PGD2) Production (%)” value in test [2] is listed as 100%.

Regarding `Cc1nc2ccccc2c(=O)n1N=Cc1c(-c2ccc(C(C)(C)C)cc2)nn(-c2ccccc2)c1O` [Compound 45], the “Inhibitory Ratio … (PGD2) Production (%)” value in test [2] is recorded as 100%.
